From patent EP4523686A1, “A SIGMA-1 RECEPTOR POSITIVE MODULATOR FOR ITS USE IN THE PREVENTION AND THE TREATMENT OF A PATHOLOGY” (priority 2023, dated 2025)
Where “and” joins values, the source holds several entries; their conditions need not be identical. Equal values may be shown once.

How the values were obtained:
5-HT3 receptor = target: T1, 5-HT3 receptor (Homo sapiens, UniProt P46098); assay: CEREP in vitro binding assay (pharmacological profiling)
T1 construct: CEREP
T1 sequence (P46098 24-478): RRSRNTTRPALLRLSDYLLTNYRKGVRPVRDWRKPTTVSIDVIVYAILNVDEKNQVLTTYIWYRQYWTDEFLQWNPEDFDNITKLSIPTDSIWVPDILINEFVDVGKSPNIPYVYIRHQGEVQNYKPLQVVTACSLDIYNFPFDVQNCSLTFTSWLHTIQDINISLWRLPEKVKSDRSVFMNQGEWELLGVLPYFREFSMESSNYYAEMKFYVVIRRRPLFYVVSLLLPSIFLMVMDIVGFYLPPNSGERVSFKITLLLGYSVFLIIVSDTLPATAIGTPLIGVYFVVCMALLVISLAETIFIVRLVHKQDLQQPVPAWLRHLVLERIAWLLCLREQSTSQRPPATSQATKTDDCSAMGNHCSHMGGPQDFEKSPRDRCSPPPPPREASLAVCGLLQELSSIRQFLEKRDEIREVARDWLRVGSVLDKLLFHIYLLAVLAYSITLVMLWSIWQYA
Protocol: (§1) Table 1 represents pharmacological profiling of convolamine which was tested at […] and 1 µM in in vitro binding assays designed with appropriate reference compounds in duplicates at CEREP facility.

CB2 receptors = target: T2, CB2 receptors (Homo sapiens, UniProt P34972); assay: as above; conditions: at micromolar concentrations; range given jointly for CB2, Kv, 5-HT3
T2 construct: CEREP
T2 sequence (P34972 whole entry): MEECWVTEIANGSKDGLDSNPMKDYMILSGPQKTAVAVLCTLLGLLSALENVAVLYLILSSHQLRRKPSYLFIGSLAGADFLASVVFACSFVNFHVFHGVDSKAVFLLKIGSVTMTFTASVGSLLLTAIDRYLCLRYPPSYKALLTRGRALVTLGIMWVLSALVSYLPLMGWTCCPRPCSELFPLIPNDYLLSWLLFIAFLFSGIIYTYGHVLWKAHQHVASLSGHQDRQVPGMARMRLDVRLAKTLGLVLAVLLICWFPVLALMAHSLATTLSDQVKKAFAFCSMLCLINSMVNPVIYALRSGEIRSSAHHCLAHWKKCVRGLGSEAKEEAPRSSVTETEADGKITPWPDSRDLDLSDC
Protocol: as §1

Kv channel = assay: as above
SIG-1R/BiP = target: T3, SIG-1R/BiP (Homo sapiens, UniProt Q99720); assay: SIG-1R/BiP dissociation assay in GFP-SIG-1R-overexpressing CHO cells; type: cell-based; conditions: for dissociation of SIG-1R from BiP (in words) / dissociation of the SIG-1R/BiP complex (in words): compound alone; for dissociation of the SIG-1R/BiP complex (in words): no concentration stated
T3 construct: host or cells: CHO cells overexpressing GFP-SIG-1R
T3 sequence (Q99720 whole entry): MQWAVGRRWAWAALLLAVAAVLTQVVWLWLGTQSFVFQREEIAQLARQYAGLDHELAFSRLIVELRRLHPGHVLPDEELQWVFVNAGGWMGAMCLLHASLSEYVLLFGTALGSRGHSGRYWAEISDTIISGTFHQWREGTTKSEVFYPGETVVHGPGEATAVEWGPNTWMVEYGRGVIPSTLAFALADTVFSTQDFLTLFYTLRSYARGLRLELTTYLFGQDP
Protocol: CHO cells which overexpress GFP tagged-SIG-1R (gift from Tsung-Ping Su, NIDA/NIH, Baltimore, MD, USA) were maintained in DMEM/Glutamax culture medium supplemented with 10% heat inactivated FBS. GFP-SIG-1Roe CHO cells were plated in 6-well plates and treated with test compounds dissolved in culture medium for 30 min at 37°C. The reaction was terminated by removing the culture medium containing the test drug and replacing it with 1 ml of PBS. GFP-SIG-1R-oe CHO cells were harvested and suspended in PBS (pH 7.4) followed by cross-linking with 50 µg/ml of dithiobis succinimidyl propionate (ThermoFisher, France). The reaction was stopped by adding Tris/HCl 50 mM (pH 8.8). After a 15 min incubation on ice, cells were lysed with 50 mM Tris (pH 7.4), 150 mM NaCl, 1% Triton X/100, 0.3% sodium deoxycholate, 0.1% SDS buffer containing a protease inhibitor cocktail (Sigma-Aldrich, France). After centrifugation at 16,000 g for 1 min, the supernatant was incubated with Chromotek GFP-trap agarose (Proteintech, United Kingdom) overnight at 4°C.

[1] = tested on: Aβ25-35-induced learning impairments in mice; assay: Step-through passive avoidance, Aβ25-35 model of Alzheimer's disease; type: in vivo; conditions: 0.3-3 mg/kg IP, single administration on day 1
Protocol: (§2) Amyloid-β[25-35] peptide (Aβ25-35) was from Eurogentec (Angers, France). It was solubilized in distilled water at 3 mg/ml and stored at -20°C until use. Before injection, the peptide was incubated at 37°C for 4 days, allowing oligomerization. Control injection was performed with vehicle solution (distilled water), and intracerebroventricularly (ICV) injections were done as described previously (Maurice et al., 1996, 2019).
The apparatus is a two-compartments (15 × 20 × 15 cm high) box with one illuminated with white polyvinylchloride walls and the other darkened with black polyvinylchloride walls and a grid floor. A guillotine door separates each compartment. A 60 W lamp positioned 40 cm above the apparatus lights up the white compartment during the experiment. Scrambled foot shocks (0.3 mA for 3 s) could be delivered to the grid floor using a shock generator scrambler (Lafayette Instruments, Lafayette, USA). The guillotine door was initially closed during the training session. Each mouse was placed into the white compartment. After 5 s, the door was raised. […] The step-through latency (STL-Tg), that is, the latency spent to enter the darkened compartment, and the number of vocalizations were recorded. […] The step-through latency (STL-R) was recorded up to 300 s (Meunier et al., 2006, 2013; Villard et al., 2009, 2011). […] Animals showing these readouts are excluded from the calculations. […]

[2] = tested on: Aβ25-35-induced learning impairments in mice; assay: Active avoidance in the rectangular water-maze, Aβ25-35 model of Alzheimer's disease; type: in vivo
Protocol: as §2
Non-spatial long-term memory was also examined using the successive training, place-learning procedure in the rectangular water-maze (Maurice et al., 1995, 2018). The apparatus is a black Plexiglas rectangular pool (30 × 60 × 36 cm high), filled with water at a high of 25 cm. The water temperature was maintained at 23 ± 1°C. A transparent Plexiglas platform (5 × 8.5 × 0.5 cm) was fixed in the southeast corner of the pool, 1 cm below the water surface. On acquisition days 1 and 2, each mouse was placed at the middle of the west side of the pool, facing the wall, and the latency to find the platform was recorded up to 60 s. The mouse was allowed to remain on it for 20 s, and then removed from the pool into its home cage. […] Each animal was run in this manner for a total of 5 trials on day 1, and 3 trials on day 2. […] A short-term memory (STM) index was defined as the mean difference in swimming duration between trial n and trial n-1 for trials 2 to 5 and 7 to 8. The STM index was analysed vs. zero level (= no improvement). On day 4, 48 h after the last training session, animals were tested for retention. The platform was removed. Each mouse was again placed at the starting point and observed for 60 s. The latency to reach the original platform location and the time spent on the platform location was recorded.
SIG-1R acting drugs are potent neuroprotective drugs in several neurodegenerative disease indications. Moreover, Blarcamesine, the drug presently tested in a clinical phase 3 assay (NCT04314934) was identified in the pharmacological model of AD induced in mice by ICV administration of oligomerized Aβ25-35 peptide (Villard et al., 2011). […]

[3] = at micromolar concentrations, range given jointly for CB2, Kv, 5-HT3

## COc1ccc(C(=O)OC2CC3CCC(C2)N3C)cc1OC (centres unmarked) [Convolamine, (8-methyl-8-azabicyclo[3.2.1]octan-3-yl) 3,4-dimethoxybenzoate]
5-HT3 receptor; 0.1 µM, duplicates
  inhibition at 0.1 µM: 16.2%
5-HT3 receptor; 1 µM, duplicates
  inhibition at 1 µM: 61.7%
5-HT3 receptor; at 1 µM
  inhibition of binding on the 5-HT3 receptor (in words): partial inhibition
5-HT3 receptor; [3]
  inhibitions of the selective radiotracer: 20-60%
CB2 receptors
  inhibitions of the selective radiotracer: 20-60%
Kv channel; 0.1 µM, duplicates
  inhibition at 0.1 µM: 30.4%
Kv channel; 1 µM, duplicates
  inhibition at 1 µM: 22.7%
Kv channel; [3]
  inhibitions of the selective radiotracer: 20-60%
SIG-1R/BiP; IC50 of SIG-1R positive modulatory action (displacement of PRE-084 efficacy to dissociate SIG-1R from BiP), convolamine 0.1-10 µM with PRE-084
  IC50: 0.29 µM and 0.289 µM
SIG-1R/BiP; at concentrations < 10 µM
  dissociation of SIG-1R from BiP (in words): failed to dissociate SIG-1R from BiP
SIG-1R/BiP; at concentrations up to 30 µM
  dissociation of SIG-1R from BiP (in words): failed to dissociate SIG-1R from BiP
SIG-1R/BiP
  dissociation of the SIG-1R/BiP complex (in words): did not induce the dissociation
SIG-1R/BiP; listed as convolamine
  dissociation of the SIG-1R/BiP complex (in words): does not allow the dissociation
[1]
  Aβ25-35-induced deficit in the passive avoidance test (in words): not effective
[2]; at 1 mg/kg
  STM (short-term memory index) in Aβ25-35-treated mice (in words): significantly increased
[2]; at 1 mg/kg IP
  Aβ25-35-induced decrease in number of platform location crossings (in words): significantly attenuated
  Aβ25-35-induced increase in latency in the retention session (in words): significantly attenuated
